Common to all, as to assay: relative viability (nuclei count vs DMSO), 5 days (fraction); higher = more cells survive
Compound in assay [1]: O=C(O)c1ccc2c(c1)nc(Nc1cccc(Cl)c1)c1ccncc12 [Silmitasertib] + C[C@]1(O)C[C@@H](c2nc(-c3ccc4ccc(-c5ccccc5)nc4c3)c3c(N)nccn32)C1 [Linsitinib] (partner 1 µM)
In short, it runs like this: (§1)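 Lung cancer cell lines, seeded in 1536-well plates, were treated the following day by pin tool with a single drug or with five library-drug doses (not always all listed) in √10 steps on top of a fixed anchor-drug dose. Cells were fixed and nuclei stained in one step after 5 days, and nuclei were counted. Relative viability is the nuclei count for treated wells divided by that for vehicle wells, reported as medians of duplicate plates.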

Compound in assay [2]: O=C(O)c1ccc2c(c1)nc(Nc1cccc(Cl)c1)c1ccncc12 [Silmitasertib] + CCNC(=O)c1noc(-c2cc(C(C)C)c(O)cc2O)c1-c1ccc(CN2CCOCC2)cc1 [Luminespib] (partner 0.01 µM)
In short, it runs like this:
as §1

Compound in assay [3]: O=C(O)c1ccc2c(c1)nc(Nc1cccc(Cl)c1)c1ccncc12 [Silmitasertib] + C[C@@H](Oc1cc(-c2cnn(C3CCNCC3)c2)cnc1N)c1c(Cl)ccc(F)c1Cl [Crizotinib] (partner 1 µM)
In outline:
as §1

Compound in assay [4]: O=C(O)c1ccc2c(c1)nc(Nc1cccc(Cl)c1)c1ccncc12 [Silmitasertib] + CS(=O)(=O)N1CCN(Cc2cc3nc(-c4cccc5[nH]ncc45)nc(N4CCOCC4)c3s2)CC1 [Pictilisib] (partner 1 µM)
In outline:
as §1

Compound in assay [5]: O=C(O)c1ccc2c(c1)nc(Nc1cccc(Cl)c1)c1ccncc12 [Silmitasertib] + N=C(N)NC(=N)NCCc1ccccc1 [Phenformin] (partner 250 µM)
In short, it runs like this:
as §1

Regarding NCI-H358, the relative viability in assay [1] (first compound 0.04 µM) came to 0.902; in assay [1] (first compound 0.4 µM) it was 0.799; in assay [1] (first compound 1.265 µM), 0.585; in assay [1] (first compound 4 µM) it was 0.607; in assay [2] (first compound 0.04 µM) it was 0.39; in assay [2] (first compound 1.265 µM), 0.22. For the same cell line, the relative viability in assay [2] (first compound 4 µM) was 0.192; in assay [3] (first compound 0.04 µM), 0.616; in assay [3] (first compound 0.4 µM), 0.47; in assay [3] (first compound 1.265 µM) it was 0.493; in assay [3] (first compound 4 µM) it was 0.407; in assay [4] (first compound 0.04 µM), 0.375. In addition, the relative viability in assay [4] (first compound 0.4 µM) was determined as 0.324; in assay [4] (first compound 1.265 µM), 0.322; in assay [4] (first compound 4 µM) it was 0.288; in assay [5] (first compound 0.04 µM), 0.371; in assay [5] (first compound 0.4 µM) it was 0.272; in assay [5] (first compound 1.265 µM), 0.325. For the same cell line, the relative viability in assay [5] (first compound 4 µM) came out at 0.225.

Take NCI-H596: the relative viability in assay [1] (first compound 0.04 µM) was found to be 1.09; in assay [1] (first compound 0.4 µM), 1.07; in assay [1] (first compound 1.265 µM), 0.839; in assay [1] (first compound 4 µM) it was 0.933; in assay [2] (first compound 0.04 µM) it was 0.948; in assay [2] (first compound 0.4 µM), 0.843. In addition, the relative viability came to 0.918 in assay [2] (first compound 1.265 µM); 1 in assay [2] (first compound 4 µM); 1.01 in assay [3] (first compound 0.04 µM); 1.01 in assay [3] (first compound 0.4 µM); 0.909 in assay [3] (first compound 1.265 µM); 0.964 in assay [3] (first compound 4 µM). Also, the relative viability stood at 0.393 in assay [4] (first compound 0.04 µM); 0.384 in assay [4] (first compound 0.4 µM); 0.36 in assay [4] (first compound 1.265 µM); 0.336 in assay [4] (first compound 4 µM); 0.655 in assay [5] (first compound 0.04 µM); 0.632 in assay [5] (first compound 0.4 µM). Also, the relative viability turned out to be 0.735 in assay [5] (first compound 1.265 µM) and 0.573 in assay [5] (first compound 4 µM).

Turning to NCI-H322M, the relative viability is 0.868 in assay [1] (first compound 0.04 µM); 0.809 in assay [1] (first compound 0.4 µM); 0.62 in assay [1] (first compound 1.265 µM); 0.453 in assay [1] (first compound 4 µM); 0.968 in assay [2] (first compound 0.04 µM); 0.893 in assay [2] (first compound 0.4 µM). The relative viability in assay [2] (first compound 1.265 µM) turned out to be 0.693; in assay [2] (first compound 4 µM), 0.44; in assay [3] (first compound 0.04 µM), 0.878; in assay [3] (first compound 0.4 µM), 0.662; in assay [3] (first compound 1.265 µM) it was 0.511; in assay [3] (first compound 4 µM) it was 0.281. The relative viability in assay [4] (first compound 0.04 µM) amounted to 0.503; in assay [4] (first compound 0.4 µM), 0.503; in assay [4] (first compound 1.265 µM) it was 0.381; in assay [4] (first compound 4 µM), 0.365; in assay [5] (first compound 0.04 µM) it was 0.783; in assay [5] (first compound 0.4 µM), 0.761. The values for the relative viability in assay [5] (first compound 1.265 µM) and in assay [5] (first compound 4 µM) were 0.603 and 0.384, respectively.

In the case of NCI-H1563, the relative viability was found to be 1.32 in assay [1] (first compound 0.04 µM); 1.22 in assay [1] (first compound 0.4 µM); 1.17 in assay [1] (first compound 1.265 µM); 1.16 in assay [1] (first compound 4 µM); 0.56 in assay [2] (first compound 0.04 µM); 0.486 in assay [2] (first compound 0.4 µM). Also, the relative viability in assay [2] (first compound 4 µM) is 0.521; in assay [3] (first compound 0.04 µM), 0.88; in assay [3] (first compound 0.4 µM), 0.822; in assay [3] (first compound 1.265 µM), 0.856; in assay [3] (first compound 4 µM), 0.857; in assay [4] (first compound 0.04 µM), 0.62. For the same cell line, the relative viability in assay [4] (first compound 0.4 µM) came out at 0.679; in assay [4] (first compound 1.265 µM) it was 0.68; in assay [4] (first compound 4 µM), 0.578; in assay [5] (first compound 0.04 µM) it was 0.711; in assay [5] (first compound 0.4 µM) it was 0.714; in assay [5] (first compound 1.265 µM), 0.655. The relative viability in assay [5] (first compound 4 µM) was 0.627.

These data come from the supplement of paper PMC10307832.
